US20080009418A1, “Selective Inhibitors” (Alchemia LTD., priority 2004, published 2008)

Columns and labels:
Human Melanocortin (MC3) = target: T1, Human Melanocortin (MC3) (Homo sapiens, UniProt P41968); test: Radioligand binding, human melanocortin MC3 membranes, FlashPlate, [125I]-NDP-αMSH; details: compound at 10 μM; [125I]-NDP-αMSH
T1 construct: purchased Perkin Elmer Biosignal
Method in brief: (§1)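 Cloned human receptor membranes were coated onto FlashPlate wells and incubated with radioligand and compound (added from a 0.5 mM DMSO daughter plate) for 1 hour at room temperature in the dark. Scintillation counting gave percent inhibition, with DMSO defining total and reference ligand defining non-specific binding.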

[1] = target: T2, Human neuropeptide Y (NPY-Y1) (Homo sapiens, UniProt P25929); test: Radioligand binding, human neuropeptide Y NPY-Y1 membranes, FlashPlate, [125I]-PYY; details: compound at 10 μM; [125I]-PYY
T2 construct: purchased Perkin Elmer Biosignal
T2 sequence (P25929 1-384): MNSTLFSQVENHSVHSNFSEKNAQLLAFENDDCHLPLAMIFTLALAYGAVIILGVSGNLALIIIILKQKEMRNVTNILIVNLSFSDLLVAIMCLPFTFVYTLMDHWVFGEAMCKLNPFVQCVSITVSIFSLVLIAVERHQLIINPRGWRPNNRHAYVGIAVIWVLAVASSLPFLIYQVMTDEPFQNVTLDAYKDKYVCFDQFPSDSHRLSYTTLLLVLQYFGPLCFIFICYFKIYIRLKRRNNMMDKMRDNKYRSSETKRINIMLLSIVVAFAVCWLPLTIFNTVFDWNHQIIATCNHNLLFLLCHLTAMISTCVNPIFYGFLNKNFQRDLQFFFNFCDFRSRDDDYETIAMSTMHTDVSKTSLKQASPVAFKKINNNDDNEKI
Method in brief: as §1

Human opioid (ORL1) = target: T3, Human opioid (ORL1) (Homo sapiens, UniProt P41146); test: Radioligand binding, human opioid ORL1 membranes, FlashPlate, [125I]-Nociceptin; details: compound at 10 μM; [125I]-Nociceptin
T3 construct: purchased Perkin Elmer Biosignal
Method in brief: as §1

Human Melanocortin (MC4) = target: T4, Human Melanocortin (MC4) (Homo sapiens, UniProt P32245); test: Radioligand binding, human melanocortin MC4 membranes, FlashPlate, [125I]-NDP-αMSH; details: compound at 10 μM; [125I]-NDP-αMSH
T4 construct: purchased Perkin Elmer Biosignal
Method in brief: as §1

Human melanocortin (MC5) = target: T5, Human melanocortin (MC5) (Homo sapiens, UniProt P33032); test: Radioligand binding, human melanocortin MC5 membranes, FlashPlate, [125I]-NDP-αMSH; details: compound at 10 μM; [125I]-NDP-αMSH
T5 construct: purchased Perkin Elmer Biosignal
Method in brief: as §1

Human μ-opioid (MOP) = target: T6, Human μ-opioid (MOP) (Homo sapiens, UniProt P35372); test: Radioligand binding, human μ-opioid (MOP) membranes, FlashPlate, [3H]-Naloxone; details: compound at 10 μM; [3H]-Naloxone
T6 construct: purchased Perkin Elmer Biosignal
Method in brief: as §1

Human δ-opioid (DOP) = target: T7, Human δ-opioid (DOP) (Homo sapiens, UniProt P41143); test: Radioligand binding, human δ-opioid (DOP) membranes, FlashPlate, [3H]-Bremazocine; details: compound at 10 μM; [3H]-Bremazocine
T7 construct: purchased Perkin Elmer Biosignal
Method in brief: as §1

Mouse urotensin (mUR2) = target: T8, Mouse urotensin (mUR2) (Mus musculus, UniProt Q8VIH9); test: Radioligand binding, mouse urotensin mUR2 membranes, FlashPlate, [125I]-Urotensin II; details: compound at 10 μM; [125I]-Urotensin II
T8 construct: purchased Perkin Elmer Biosignal
T8 sequence (Q8VIH9 1-385): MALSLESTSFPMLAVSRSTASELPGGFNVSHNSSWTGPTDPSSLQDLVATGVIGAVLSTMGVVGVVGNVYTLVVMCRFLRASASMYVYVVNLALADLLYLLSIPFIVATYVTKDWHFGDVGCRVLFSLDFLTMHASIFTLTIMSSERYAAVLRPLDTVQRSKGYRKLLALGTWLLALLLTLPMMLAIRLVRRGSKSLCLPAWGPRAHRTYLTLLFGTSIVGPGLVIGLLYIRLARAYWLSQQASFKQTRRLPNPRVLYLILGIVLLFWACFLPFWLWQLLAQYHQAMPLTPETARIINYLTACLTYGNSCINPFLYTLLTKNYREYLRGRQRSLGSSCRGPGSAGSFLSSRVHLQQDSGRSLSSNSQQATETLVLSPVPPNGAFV
Method in brief: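 Cloned mouse urotensin (mUR2) receptor membranes from Perkin Elmer Biosignal were immobilized in FlashPlate microplates using a proprietary coating. Each well got 19.5 μl buffer, then 0.5 μl of DMSO, reference ligand, or compound. Adding 5 μl of [125I]-Urotensin II, diluted to 5× final concentration in binding buffer, started binding. Plates were sealed with TopSeal-A and incubated 1 hour at room temperature in the dark. Wells were counted for 30 seconds each on a TopCount after a 60-second delay, and percentage inhibition was calculated.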

[2] = target: T9, Human melanin-concentrating hormone (MCH1) (Homo sapiens, UniProt Q99705); test: Radioligand binding, human melanin-concentrating hormone MCH1 membranes, FlashPlate, [125I]-S36057; details: compound at 10 μM; [125I]-S36057
T9 construct: purchased Perkin Elmer Biosignal
Method in brief: as §1

Human κ-Opioid (KOP) = target: T10, Human κ-Opioid (KOP) (Homo sapiens, UniProt P41145); test: Radioligand binding, human κ-opioid (KOP) membranes, filtration, [3H]-Diprenorphine; details: compound at 10 μM; [3H]-Diprenorphine
T10 construct: purchased Perkin Elmer Biosignal
Method in brief: (§2)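 Filtration binding on cloned human receptor membranes (1 Unit/well), [125I]-Substance P for NK1 and [3H]-Diprenorphine for KOP, 1 h at room temperature. Filters PEI-presoaked, washed with cold 50 mM Tris-HCl pH 7.4, counted by scintillation; percent inhibition calculated, reference ligand defining non-specific binding.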

Human neurokinin (NK1) = target: T11, Human neurokinin (NK1) (Homo sapiens, UniProt P25103); test: Radioligand binding, human neurokinin NK1 membranes, filtration, [125I]-Substance P; details: compound at 10 μM; [125I]-Substance P
T11 construct: purchased Perkin Elmer Biosignal
Method in brief: as §2

T3 sequence (P41146 whole entry): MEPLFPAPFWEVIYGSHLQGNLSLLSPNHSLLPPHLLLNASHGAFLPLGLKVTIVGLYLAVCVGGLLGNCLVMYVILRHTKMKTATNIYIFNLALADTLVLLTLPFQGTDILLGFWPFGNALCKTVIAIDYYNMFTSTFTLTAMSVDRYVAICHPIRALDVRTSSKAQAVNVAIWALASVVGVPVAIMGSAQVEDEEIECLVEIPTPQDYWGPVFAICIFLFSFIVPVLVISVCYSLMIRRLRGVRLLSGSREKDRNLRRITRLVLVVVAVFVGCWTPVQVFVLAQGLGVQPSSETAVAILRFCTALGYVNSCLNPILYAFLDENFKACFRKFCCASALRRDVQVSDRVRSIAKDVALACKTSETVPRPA
T4 sequence (P32245 whole entry): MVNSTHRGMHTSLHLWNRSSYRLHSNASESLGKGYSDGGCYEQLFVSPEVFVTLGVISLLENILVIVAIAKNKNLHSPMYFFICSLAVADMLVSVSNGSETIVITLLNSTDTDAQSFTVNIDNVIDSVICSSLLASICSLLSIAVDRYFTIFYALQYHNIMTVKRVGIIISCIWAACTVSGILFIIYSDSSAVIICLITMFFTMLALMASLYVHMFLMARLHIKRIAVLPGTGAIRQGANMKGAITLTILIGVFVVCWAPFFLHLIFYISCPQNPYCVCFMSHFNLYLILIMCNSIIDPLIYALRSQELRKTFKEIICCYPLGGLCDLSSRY
T9 sequence (Q99705 whole entry): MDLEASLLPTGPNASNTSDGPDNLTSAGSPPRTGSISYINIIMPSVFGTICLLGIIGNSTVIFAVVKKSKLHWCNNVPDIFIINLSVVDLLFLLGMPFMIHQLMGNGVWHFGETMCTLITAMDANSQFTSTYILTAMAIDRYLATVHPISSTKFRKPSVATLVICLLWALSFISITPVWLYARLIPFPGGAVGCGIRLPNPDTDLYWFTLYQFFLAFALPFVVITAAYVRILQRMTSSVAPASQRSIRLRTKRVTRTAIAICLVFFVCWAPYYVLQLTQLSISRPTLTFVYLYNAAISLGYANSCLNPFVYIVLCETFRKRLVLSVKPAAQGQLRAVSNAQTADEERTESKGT
T6 sequence (P35372 whole entry): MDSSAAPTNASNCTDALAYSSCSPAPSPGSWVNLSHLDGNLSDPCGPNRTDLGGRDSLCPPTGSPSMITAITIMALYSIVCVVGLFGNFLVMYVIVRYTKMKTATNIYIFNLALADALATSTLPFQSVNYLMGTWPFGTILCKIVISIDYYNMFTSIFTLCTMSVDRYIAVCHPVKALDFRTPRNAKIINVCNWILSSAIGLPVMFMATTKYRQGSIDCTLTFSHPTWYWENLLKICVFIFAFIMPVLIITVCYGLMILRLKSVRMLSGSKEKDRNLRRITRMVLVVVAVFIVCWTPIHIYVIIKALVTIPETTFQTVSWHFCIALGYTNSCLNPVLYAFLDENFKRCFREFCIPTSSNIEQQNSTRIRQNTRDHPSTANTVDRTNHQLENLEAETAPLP
T7 sequence (P41143 whole entry): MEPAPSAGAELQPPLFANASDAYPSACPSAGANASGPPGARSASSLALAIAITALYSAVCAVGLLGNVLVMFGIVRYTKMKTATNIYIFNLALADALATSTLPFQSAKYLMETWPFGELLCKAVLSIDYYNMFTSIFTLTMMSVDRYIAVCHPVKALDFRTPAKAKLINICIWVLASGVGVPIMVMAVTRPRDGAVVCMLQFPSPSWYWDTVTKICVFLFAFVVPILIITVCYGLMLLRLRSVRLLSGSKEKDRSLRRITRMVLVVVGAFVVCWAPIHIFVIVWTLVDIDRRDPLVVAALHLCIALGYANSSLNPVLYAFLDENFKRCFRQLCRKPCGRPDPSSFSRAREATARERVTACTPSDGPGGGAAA
T1 sequence (P41968 whole entry): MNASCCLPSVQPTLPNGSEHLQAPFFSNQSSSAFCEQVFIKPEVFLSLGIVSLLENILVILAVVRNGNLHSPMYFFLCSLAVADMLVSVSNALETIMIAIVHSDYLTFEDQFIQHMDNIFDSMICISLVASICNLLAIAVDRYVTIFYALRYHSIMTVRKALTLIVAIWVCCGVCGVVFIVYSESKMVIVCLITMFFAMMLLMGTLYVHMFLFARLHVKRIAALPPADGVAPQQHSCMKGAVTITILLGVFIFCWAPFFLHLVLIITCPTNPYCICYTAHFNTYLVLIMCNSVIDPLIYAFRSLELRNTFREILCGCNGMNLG
T10 sequence (P41145 whole entry): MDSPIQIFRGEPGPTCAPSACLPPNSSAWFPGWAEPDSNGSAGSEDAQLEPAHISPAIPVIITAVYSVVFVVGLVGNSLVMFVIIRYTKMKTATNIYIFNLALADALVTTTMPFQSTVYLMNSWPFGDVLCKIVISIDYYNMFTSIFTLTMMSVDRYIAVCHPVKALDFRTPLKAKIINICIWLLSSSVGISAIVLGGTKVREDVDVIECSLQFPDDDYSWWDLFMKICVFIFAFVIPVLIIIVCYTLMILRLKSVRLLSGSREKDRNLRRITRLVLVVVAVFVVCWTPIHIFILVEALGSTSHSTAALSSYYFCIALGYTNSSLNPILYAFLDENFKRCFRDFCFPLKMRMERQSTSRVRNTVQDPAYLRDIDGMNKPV
T5 sequence (P33032 whole entry): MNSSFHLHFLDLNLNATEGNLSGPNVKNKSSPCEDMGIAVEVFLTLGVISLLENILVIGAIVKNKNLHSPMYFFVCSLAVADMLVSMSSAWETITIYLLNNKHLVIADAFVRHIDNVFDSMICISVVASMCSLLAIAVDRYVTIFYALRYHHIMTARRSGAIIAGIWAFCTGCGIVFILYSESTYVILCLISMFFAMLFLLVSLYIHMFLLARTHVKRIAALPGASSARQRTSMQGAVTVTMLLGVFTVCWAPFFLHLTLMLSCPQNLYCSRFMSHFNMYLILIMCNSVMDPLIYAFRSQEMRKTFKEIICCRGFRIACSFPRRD
T11 sequence (P25103 whole entry): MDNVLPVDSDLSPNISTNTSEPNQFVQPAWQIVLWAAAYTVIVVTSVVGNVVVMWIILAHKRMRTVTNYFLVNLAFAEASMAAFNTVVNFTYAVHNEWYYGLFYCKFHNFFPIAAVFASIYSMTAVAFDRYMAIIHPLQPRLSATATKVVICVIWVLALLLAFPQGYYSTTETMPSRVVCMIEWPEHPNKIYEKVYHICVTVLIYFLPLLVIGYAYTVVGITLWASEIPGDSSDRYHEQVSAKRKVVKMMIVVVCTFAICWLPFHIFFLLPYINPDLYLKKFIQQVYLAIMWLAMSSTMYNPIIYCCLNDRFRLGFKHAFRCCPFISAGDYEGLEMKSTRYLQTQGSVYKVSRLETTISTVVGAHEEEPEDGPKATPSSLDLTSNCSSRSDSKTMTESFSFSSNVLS

Compound | A3: inhibition of radioligand binding, human melanocortin (MC3) (Human Melanocortin (MC3)) | A9: inhibition of radioligand binding, human neuropeptide Y (NPY-Y1) [1] | A10: inhibition of radioligand binding, human opioid (ORL1) (Human opioid (ORL1)) | A4: inhibition of radioligand binding, human melanocortin (MC4) (Human Melanocortin (MC4)) | A5: inhibition of radioligand binding, human melanocortin (MC5) (Human melanocortin (MC5)) | A7: inhibition of radioligand binding, human μ-opioid (MOP) (Human μ-opioid (MOP)) | A1: inhibition of radioligand binding, human δ-opioid (DOP) (Human δ-opioid (DOP)) | A11: inhibition of radioligand binding, mouse urotensin (mUR2) (Mouse urotensin (mUR2)) | A6: inhibition of radioligand binding, human melanin-concentrating hormone (MCH1) [2] | A2: inhibition of radioligand binding, human κ-opioid (KOP) (Human κ-Opioid (KOP)) | A8: inhibition of radioligand binding, human neurokinin (NK1) (Human neurokinin (NK1))
O=C(N[C@H]1C(NC(=O)C2CCNCC2)O[C@H](CO)[C@@H](O)[C@@H]1OCc1cccc2ccccc12)c1ccccc1 (stereo partly shown) [compound 363] | − (“−” indicates less than 50% inhibition at 10 μM) | − (“−” indicates less than 50% inhibition at 10 μM) | − (“−” indicates less than 50% inhibition at 10 μM) | − (“−” indicates less than 50% inhibition at 10 μM) | − (“−” indicates less than 50% inhibition at 10 μM) | − (“−” indicates less than 50% inhibition at 10 μM) | − (“−” indicates less than 50% inhibition at 10 μM) | − (“−” indicates less than 50% inhibition at 10 μM) | − (“−” indicates less than 50% inhibition at 10 μM) | − (“−” indicates less than 50% inhibition at 10 μM) | + (“+” indicates greater than 50% inhibition at 10 μM)
NCCC(=O)NC1C(OCc2ccccc2)OC(COCc2ccc3ccccc3c2)C(O)C1OCc1ccc(Cl)cc1 (stereo not shown) [compound 364] | + (“+” indicates greater than 50% inhibition at 10 μM) | − (“−” indicates less than 50% inhibition at 10 μM) | − (“−” indicates less than 50% inhibition at 10 μM) | + (“+” indicates greater than 50% inhibition at 10 μM) | + (“+” indicates greater than 50% inhibition at 10 μM) | − (“−” indicates less than 50% inhibition at 10 μM) | − (“−” indicates less than 50% inhibition at 10 μM) | − (“−” indicates less than 50% inhibition at 10 μM) | − (“−” indicates less than 50% inhibition at 10 μM) | − (“−” indicates less than 50% inhibition at 10 μM) | + (“+” indicates greater than 50% inhibition at 10 μM)
NCCC(=O)NC1C(OCc2ccccc2)OC(COCc2ccccc2)C(O)C1OCc1ccc(Cl)cc1 (stereo not shown) [compound 365] | − (“−” indicates less than 50% inhibition at 10 μM) | − (“−” indicates less than 50% inhibition at 10 μM) | − (“−” indicates less than 50% inhibition at 10 μM) | − (“−” indicates less than 50% inhibition at 10 μM) | − (“−” indicates less than 50% inhibition at 10 μM) | − (“−” indicates less than 50% inhibition at 10 μM) | − (“−” indicates less than 50% inhibition at 10 μM) | − (“−” indicates less than 50% inhibition at 10 μM) | − (“−” indicates less than 50% inhibition at 10 μM) | − (“−” indicates less than 50% inhibition at 10 μM) | + (“+” indicates greater than 50% inhibition at 10 μM)
NCCC(=O)NC1C(OCc2ccccc2)OC(COCc2ccc3ccccc3c2)C(O)C1OCc1ccc2ccccc2c1 (stereo not shown) [compound 366] | + (“+” indicates greater than 50% inhibition at 10 μM) | − (“−” indicates less than 50% inhibition at 10 μM) | − (“−” indicates less than 50% inhibition at 10 μM) | + (“+” indicates greater than 50% inhibition at 10 μM) | + (“+” indicates greater than 50% inhibition at 10 μM) | − (“−” indicates less than 50% inhibition at 10 μM) | − (“−” indicates less than 50% inhibition at 10 μM) | − (“−” indicates less than 50% inhibition at 10 μM) | − (“−” indicates less than 50% inhibition at 10 μM) | − (“−” indicates less than 50% inhibition at 10 μM) | + (“+” indicates greater than 50% inhibition at 10 μM)
NCCC(=O)NC1C(OCc2ccccc2)OC(COCc2ccccc2)C(O)C1OCc1ccc2ccccc2c1 (stereo not shown) [compound 367] | − (“−” indicates less than 50% inhibition at 10 μM) | − (“−” indicates less than 50% inhibition at 10 μM) | − (“−” indicates less than 50% inhibition at 10 μM) | + (“+” indicates greater than 50% inhibition at 10 μM) | + (“+” indicates greater than 50% inhibition at 10 μM) | − (“−” indicates less than 50% inhibition at 10 μM) | − (“−” indicates less than 50% inhibition at 10 μM) | − (“−” indicates less than 50% inhibition at 10 μM) | − (“−” indicates less than 50% inhibition at 10 μM) | − (“−” indicates less than 50% inhibition at 10 μM) | + (“+” indicates greater than 50% inhibition at 10 μM)
